Measurements taken from patent publication US11498928B2, “Macrocyclic spiroethers as Mcl-1 inhibitors” (ASCENTAGE PHARMA (SUZHOU) CO., LTD., priority 2019, dated 2022).
Blank lines part the entries; values can stand above or below the molecule they belong to.

Key:
[1] = molecular target: T1, Mcl-1 protein (residues 171-323) (Homo sapiens, UniProt Q07820); experiment: Inhibition of Mcl-1 by fluorescence polarization (FP) competitive binding assay with FAM-Bid tracer; settings: 2 nM FAM-Bid, 20 nM Mcl-1, 30 min
T1 construct: Tag-free Mcl-1 protein (residues 171-323) was used in the FP assay
T1 sequence (Q07820 171-323): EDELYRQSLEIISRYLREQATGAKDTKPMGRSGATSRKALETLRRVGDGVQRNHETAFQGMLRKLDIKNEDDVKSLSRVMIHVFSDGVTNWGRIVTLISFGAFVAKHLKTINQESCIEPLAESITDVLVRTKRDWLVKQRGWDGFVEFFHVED
Protocol: Inhibition of Mcl-1 by Fluorescence Polarization (FP) Assay.
The relative binding potency of representative Compounds of the Disclosure was determined by a fluorescence polarization (FP) assay (Long et al, BMC Biotechnology 13:45 (2013)). The method used a fluorescein labelled peptide (FAM-Bid) which binds to the Mcl-1 protein leading to an increased anisotropy measured in milli-polarization (mP) values using a plate reader. […] Tag-free Mcl-1 protein (residues 171-323) was used in the FP assay (Mady et al, Scientific Reports 8: 10210-10210 (2018); Yang et al, ACS Med. Chem. Lett. 3:308-312 (2012)).
A 10-points serial dilution of each compound was prepared in DMSO and 5 μL solution was transferred into flat bottomed, 96-well back plate (final DMSO concentration 5%). 120 μL of Buffer (PBS, 0.01% BGG (Sigma Cat. #SRE0011), 0.01% Triton X-100), containing the Fluorescein labelled peptide (Final concentration 2 nM) and Mcl-1 protein (final concentration 20 nM) was then added. Assay plates were incubated 30 mins at room temperature with gentle shaking before FP was measured on a Biotek Synergy 1MF reader (Ex. 485 nm, Em. 528 nm, Cut off 510 nm) and mP calculated. The binding of increasing doses of test compounds was expressed as a percentage reduction in mP compared to a window established between 5% DMSO only and 100% inhibition controls (no Mcl-1 protein). 10-points dose response curves were plotted with GraphPad software using Sigmoidal Dose-Response Model and the IC50 values were determined by nonlinear regression fitting of the competition curves. Cell Viability Assay (NCI-H929 cells)

OPM-2 cells = experiment: Cell viability assay (OPM-2 cells), CCK-8; assay type: cell-based; settings: 5% FBS
Protocol: OPM-2 cells were obtained from Deutsche Sammlung von Mikroorganismen and Zellkulturen GmbH (DSMZ). Cells were maintained in the recommended culture medium with 10% FBS at 37° C. and an atmosphere of 5% CO2.
The effect of representative Compounds of the Disclosure on cell viability was determined using Cell Counting Kit-8 (CCK-8) assay (Shanghai Life iLab Bio Technology) according to the manufacturer's instructions. Each tested compound was serially diluted in culture medium, 100 μL of the compound dilution was added into 96-well plates. 100 μL of an OPM-2 cell suspension (20000 cells/well) in culture medium were seeded into the corresponding well of the plate and the cells were incubated at 37° C. in an atmosphere of 5% CO2 for 24 hours. In the next day, 20 μL of CCK-8 solution was added to each well of the plate and incubated for 4 hours.
The plates were read at 450 nm on the microplate spectrophotometer (SpectraMax plus 384, Molecular devices). The readings were normalized to the vehicle cells, and the IC50 was calculated by nonlinear regression analysis using GraphPad Prism 6 software.

NCI-H929 cells = experiment: Cell viability assay (NCI-H929 cells), CCK-8; assay type: cell-based; settings: 5% FBS
Protocol: NCI-H929 cells were obtained from American Type Culture Collection (ATCC). Cells were maintained in the recommended culture medium (RPMI 1640) with 10% FBS and 0.05 mM BME at 37° C. and an atmosphere of 5% CO2.
The effect of Compounds on cell viability was determined using Cell Counting Kit-8 (CCK-8) assay according to the manufacturer's instructions. 95 μL of NCI-H929 cell suspension (20000 cells/well) in culture medium were seeded into 96-well plates and cultured 4 hrs. Each tested compound was serially diluted in DMSO, then 5 μL of the compound or DMSO was diluted in 95 μL medium once more. At last, 5 μL of the compound dilution was added to the corresponding well of the cell plate. After the addition of the tested compound, the cells were incubated at 37° C. in an atmosphere of 5% CO2 for 24 hrs. At the end, 10 μL of CCK-8 solution was added to each well of the plate and incubated for 1-4 hours. The plates were read at 450 nm on the microplate reader (BioTek Synergy 1MF). The readings were normalized to the vehicle cells, and the IC50 was calculated by nonlinear regression analysis using GraphPad Prism 6 software. Cell Viability Assay (OPM-2 cells)

Structure (SMILES): CO[C@H]1C2=C[C@@H](C2)[C@H](C)N(C[C@H]2CCCO2)S(=O)(=O)NC(=O)c2ccc3c(c2)N(C[C@@H]2CC[C@H]21)C[C@@]1(CCCc2cc(Cl)ccc21)CO3 (single isomer, unassigned) [30 (isomer 4)]
IC50 [1]: 21 nM | IC50 (OPM-2 cells; Homo sapiens, OPM-2, 24 h): > 10000 nM | IC50 (NCI-H929 cells; Homo sapiens, NCI-H929, 24 h): > 10000 nM

Structure (SMILES): CO[C@H]1C2=CC(CCS(=O)(=O)NC(=O)c3ccc4c(c3)N(C[C@@H]3CC[C@H]31)C[C@@]1(CCCc3cc(Cl)ccc31)CO4)C2 (single isomer, unassigned) [Cpd. No. 1 (Isomer 2)]
IC50 [1]: 5.7 nM | IC50 (OPM-2 cells; 24 h): 2430 nM | IC50 (NCI-H929 cells; 24 h): 1500 nM

Structure (SMILES): CO[C@@H]1C2=CC(CCS(=O)(=O)NC(=O)c3ccc4c(c3)N(C[C@@H]3CC[C@H]31)C[C@@]1(CCCc3cc(Cl)ccc31)CO4)C2 (single isomer, unassigned) [Cpd. No. 4 (Isomer 1)]
IC50 [1]: 8.3 nM | IC50 (OPM-2 cells; 24 h): 5720 nM | IC50 (NCI-H929 cells; 24 h): 4200 nM

Structure (SMILES): CO[C@H]1C2=CC(C2)C(C)(C)CS(=O)(=O)NC(=O)c2ccc3c(c2)N(C[C@@H]2CC[C@H]21)C[C@@]1(CCCc2cc(Cl)ccc21)CO3 (single isomer, unassigned) [Cpd. No. 5 (Isomer 1)]
IC50 [1]: 4.8 nM | IC50 (OPM-2 cells; 24 h): 411 nM | IC50 (NCI-H929 cells; 24 h): 120 nM

Structure (SMILES): CO[C@@H]1C2=CC(C2)C(C)(C)CS(=O)(=O)NC(=O)c2ccc3c(c2)N(C[C@@H]2CC[C@H]21)C[C@@]1(CCCc2cc(Cl)ccc21)CO3 (single isomer, unassigned) [Cpd. No. 6 (Isomer 1)]
IC50 [1]: 5.2 nM | IC50 (OPM-2 cells; 24 h): 1300 nM | IC50 (NCI-H929 cells; 24 h): 870 nM

Structure (SMILES): CC[C@@H]1CS(=O)(=O)NC(=O)c2ccc3c(c2)N(C[C@@H]2CC[C@H]2[C@@H](OC)C2=CC1C2)C[C@@]1(CCCc2cc(Cl)ccc21)CO3 (single isomer, unassigned) [Cpd. No. 9 (Isomer 1)]
IC50 [1]: 4.4 nM | IC50 (OPM-2 cells; 24 h): 1170 nM | IC50 (NCI-H929 cells; 24 h): 680 nM

Structure (SMILES): CC[C@@H]1CS(=O)(=O)NC(=O)c2ccc3c(c2)N(C[C@@H]2CC[C@H]2[C@@H](OC)C2=CC1C2)C[C@@]1(CCCc2cc(Cl)ccc21)CO3 (single isomer, unassigned) [Cpd. No. 10 (Isomer 1)]
IC50 [1]: 4.9 nM | IC50 (OPM-2 cells; 24 h): 2500 nM | IC50 (NCI-H929 cells; 24 h): 1700 nM

Structure (SMILES): CC[C@@H]1CS(=O)(=O)NC(=O)c2ccc3c(c2)N(C[C@@H]2CC[C@H]2[C@@H](OC)C2=CC1C2)C[C@@]1(CCCc2cc(Cl)ccc21)CO3 (single isomer, unassigned) [Cpd. No. 10 (Isomer 2)]
IC50 [1]: 4.9 nM | IC50 (OPM-2 cells; 24 h): 1130 nM | IC50 (NCI-H929 cells; 24 h): 780 nM

Structure (SMILES): CO[C@H]1C2=CC(C2)[C@H](C)CS(=O)(=O)NC(=O)c2ccc3c(c2)N(C[C@@H]2CC[C@H]21)C[C@@]1(CCCc2cc(Cl)ccc21)CO3 (single isomer, unassigned) [Cpd. No. 14 (Isomer 2)]
IC50 [1]: 11 nM | IC50 (OPM-2 cells; 24 h): 1310 nM | IC50 (NCI-H929 cells; 24 h): 150 nM

Structure (SMILES): CO[C@H]1C2=C[C@H](C2)[C@H](C)[C@@H](C)S(=O)(=O)NC(=O)c2ccc3c(c2)N(C[C@@H]2CC[C@H]21)C[C@@]1(CCCc2cc(Cl)ccc21)CO3 (single isomer, unassigned) [Cpd. No. 15 (isomer 2)]
IC50 [1]: 6.5 nM | IC50 (OPM-2 cells; Homo sapiens, OPM-2, 24 h): 1000 nM | IC50 (NCI-H929 cells; Homo sapiens, NCI-H929, 24 h): 230 nM

Structure (SMILES): CO[C@H]1C2=C[C@H](C2)[C@H](C)[C@@H](C)S(=O)(=O)NC(=O)c2ccc3c(c2)N(C[C@@H]2CC[C@H]21)C[C@@]1(CCCc2c1ccc(Cl)c2F)CO3 (single isomer, unassigned) [Cpd. No. 17 (isomer 2)]
IC50 [1]: 12 nM | IC50 (OPM-2 cells; Homo sapiens, OPM-2, 24 h): 601 nM | IC50 (NCI-H929 cells; Homo sapiens, NCI-H929, 24 h): 310 nM

Structure (SMILES): CO[C@H]1C2=CC(C2)[C@H](C)[C@@H](C)S(=O)(=O)NC(=O)c2ccc3c(c2)N(C[C@@H]2CC[C@H]21)C[C@@]1(CCCc2c1cc(F)c(Cl)c2F)CO3 (single isomer, unassigned) [Cpd. No. 19]
IC50 [1]: 19 nM | IC50 (OPM-2 cells; Homo sapiens, OPM-2, 24 h): 802 nM | IC50 (NCI-H929 cells; Homo sapiens, NCI-H929, 24 h): 670 nM

Continued by falling IC50 [1], values first:

IC50 [1]: 14 nM | IC50 (NCI-H929 cells; Homo sapiens, NCI-H929, 24 h): 1300 nM
Structure (SMILES): CO[C@H]1C2CC(C2)[C@H](C)N(C)S(=O)(=O)NC(=O)c2ccc3c(c2)N(C[C@@H]2CC[C@H]21)C[C@@]1(CCCc2cc(Cl)ccc21)CO3 [Cpd. No. 28, (1S,12′S,16′S,16a′R,18a′R)-6-chloro-16′-methoxy-11′,12′-dimethyl-3,4,12′,13′,14′,15′,16′,16a′,17′,18′,18a′,19′-dodecahydro-1′H,2H,3′H,11′H-spiro[naphthalene-1,2′-[5,7]etheno[13,15]methanocyclobuta[i][1,4]oxazepino[3,4-f][1]thia[2,7,16]triazacyclohexadecin]-8′(9′H)-one 10′,10′-dioxide]
IC50 (OPM-2 cells; Homo sapiens, OPM-2, 24 h): 1500 nM

IC50 [1]: 12 nM | IC50 (NCI-H929 cells; 24 h): 1600 nM
Structure (SMILES): CO[C@@H]1C2=CC(CCS(=O)(=O)NC(=O)c3ccc4c(c3)N(C[C@@H]3CC[C@H]31)C[C@@]1(CCCc3cc(Cl)ccc31)CO4)C2 (single isomer, unassigned) [Cpd. No. 4 (Isomer 2)]
IC50 (OPM-2 cells; 24 h): 2120 nM

IC50 [1]: 8.3 nM | IC50 (NCI-H929 cells; 24 h): 1600 nM
Structure (SMILES): CO[C@H]1C2=CC(C2)C(C)(C)CS(=O)(=O)NC(=O)c2ccc3c(c2)N(C[C@@H]2CC[C@H]21)C[C@@]1(CCCc2cc(Cl)ccc21)CO3 (single isomer, unassigned) [Cpd. No. 5 (Isomer 2)]
IC50 (OPM-2 cells; 24 h): 5210 nM

IC50 [1]: 7.7 nM | IC50 (NCI-H929 cells; Homo sapiens, NCI-H929, 24 h): 49 nM
Structure (SMILES): C[C@@H]1[C@@H](C)S(=O)(=O)NC(=O)c2ccc3c(c2)N(C[C@@H]2CC[C@H]2[C@@H](N2CCOCC2)C2=C[C@H]1C2)C[C@@]1(CCCc2c1ccc(Cl)c2F)CO3 (single isomer, unassigned) [compound 56]
IC50 (OPM-2 cells; Homo sapiens, OPM-2, 24 h): 65 nM

IC50 [1]: 6.8 nM | IC50 (NCI-H929 cells; 24 h): 360 nM
Structure (SMILES): CO[C@H]1C2=CC(CCS(=O)(=O)NC(=O)c3ccc4c(c3)N(C[C@@H]3CC[C@H]31)C[C@@]1(CCCc3cc(Cl)ccc31)CO4)C2 (single isomer, unassigned) [Cpd. No. 1 (Isomer 1)]
IC50 (OPM-2 cells; 24 h): 547 nM

IC50 [1]: 6.3 nM | IC50 (NCI-H929 cells; 24 h): 3400 nM
Structure (SMILES): CO[C@@H]1C2=CC(C2)C(C)(C)CS(=O)(=O)NC(=O)c2ccc3c(c2)N(C[C@@H]2CC[C@H]21)C[C@@]1(CCCc2cc(Cl)ccc21)CO3 (single isomer, unassigned) [Cpd. No. 6 (Isomer 2)]
IC50 (OPM-2 cells; 24 h): 2870 nM

IC50 [1]: 4.9 nM | IC50 (NCI-H929 cells; 24 h): 440 nM
Structure (SMILES): CO[C@H]1C2=CC(C)(C2)[C@H](C)CS(=O)(=O)NC(=O)c2ccc3c(c2)N(C[C@@H]2CC[C@H]21)C[C@@]1(CCCc2cc(Cl)ccc21)CO3 (single isomer, unassigned) [Cpd. No. 18 (Isomer 2)]
IC50 (OPM-2 cells; 24 h): 1210 nM

IC50 [1]: 4.2 nM | IC50 (NCI-H929 cells; 24 h): 37 nM
Structure (SMILES): CO[C@H]1C2=CC(C)(C2)[C@H](C)CS(=O)(=O)NC(=O)c2ccc3c(c2)N(C[C@@H]2CC[C@H]21)C[C@@]1(CCCc2cc(Cl)ccc21)CO3 (single isomer, unassigned) [Cpd. No. 18 (Isomer 1)]
IC50 (OPM-2 cells; 24 h): 25 nM

IC50 [1]: 3.9 nM | IC50 (NCI-H929 cells; 24 h): 210 nM
Structure (SMILES): CC[C@@H]1CS(=O)(=O)NC(=O)c2ccc3c(c2)N(C[C@@H]2CC[C@H]2[C@@H](OC)C2=CC1C2)C[C@@]1(CCCc2cc(Cl)ccc21)CO3 (single isomer, unassigned) [Cpd. No. 9 (Isomer 2)]
IC50 (OPM-2 cells; 24 h): 260 nM
